In patent US8389544B2, “Isoquinolone compounds as subtype-selective agonists for melatonin receptors MT1 and MT2” (The Hong Kong University of Science and Technology, priority 2007, dated 2013):
Read-outs that look alike come from different tables or passages of the source.

Legend:
Type in all cases: cell-based
MT2 receptor = biological target: T1, MT2 receptor (Homo sapiens, UniProt P49286); assay: CRE-Luc (luciferase reporter gene) assay, MT2; design: expressed in transfected cells; conditions: HEK 293-pCREluc cells with MT2; inhibition of forskolin response
T1 sequence (P49286 1-362): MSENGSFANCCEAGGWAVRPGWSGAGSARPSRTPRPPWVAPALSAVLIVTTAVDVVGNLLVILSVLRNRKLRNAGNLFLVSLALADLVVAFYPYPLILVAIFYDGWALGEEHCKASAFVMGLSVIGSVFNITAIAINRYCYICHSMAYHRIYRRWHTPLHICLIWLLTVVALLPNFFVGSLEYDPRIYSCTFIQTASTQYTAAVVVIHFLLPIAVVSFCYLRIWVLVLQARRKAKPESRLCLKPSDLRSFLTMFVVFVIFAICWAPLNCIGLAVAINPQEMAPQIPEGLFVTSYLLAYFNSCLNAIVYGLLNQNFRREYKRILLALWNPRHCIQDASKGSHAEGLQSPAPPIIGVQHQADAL
Experimental: The luciferase reporter gene assay offers another way to measure melatonin receptor activation. Cells expressing cAMP-responsive element-driven luciferase reporter gene (293-pCREluc) and either the MT1 or MT2 receptor are treated with forskolin (a substance which stimulates cAMP production as well as the subsequent luciferase gene expression) alone or with a novel isoquinolone compound. As melatonin receptor activation inhibits cAMP production, any suppression in the expression of luciferase leads to a decrease in enzymatic activities and a reduction in the amount of luminescence signal generated.
The luciferase assay, a reporter gene assay, was performed to confirm the ability of the invention to activate the melatonin receptors. Prior to the assay, HEK (human embryonic kidney) 293 cells are stably transfected with cAMP-responsive element-driven luciferase reporter gene (293-pCREluc) and cDNAs encoding MT1 or MT2 receptors. The cells are then exposed to the novel isoquinolone compounds, after which the substrate luciferin is added and the resulting luminescence measured.
Prior to the assay human embryonic kidney (HEK) 293 cells (CRL-1573, ATCC) is maintained at 37° C. in minimum essential medium (MEM) supplemented with 10% fetal bovine serum (FBS), 100 units/ml penicillin and 100 μg/ml streptomycin in a humidified atmosphere containing 5% CO2. Human embryonic kidney 293 cells stably transfected with cAMP-responsive element-driven luciferase reporter gene (293-pCREluc) are established and maintained in growth medium supplemented with 300 μg/ml G418 sulphate.
For luciferase assays, HEK-293 cells stably expressing pCRE-luciferase are seeded at a density of 15,000 cells/well into 96 well plates. Transfection is carried out using Lipofectamine Plus® reagent at 0.2 μl of both Plus and lipofectamine reagents with 50 ng cDNAs encoding MT1 or MT2 receptors per well. After a 3 hour transfection period at 37° C., 50 μl of DMEM with 20% fetal calf serum (FCS) is added into the wells and the plate is incubated at 37° C. for 48 h prior to 24 hour serum starvation. […]
Cells are harvested by replacing medium in the well by 50 μl luciferase lysis buffer. The Berthold microplate luminometer is maintained at 25° C. throughout the assay. Injector M connected to an empty tube and P connected to the drug tube are set to inject 25 μl of luciferin into appropriate wells. A 1.6 second delay time followed by a 1 second measuring time period is assigned to injector M, whereas injector P is measured for 10 seconds after luciferase substrate is introduced into the well. Results are expressed as relative luminescent units (RLU). Where indicated, agonist-induced activity is expressed as a percentage of the RLU obtained with forskolin.

MT1 receptor [1] = biological target: T2, MT1 receptor (Homo sapiens, UniProt P48039); assay: FLIPR Ca2+ mobilization assay, MT1; design: expressed in transfected cells; host or cells: COS-7 (monkey kidney fibroblast); conditions: for logEC50 ± SEM: NSR = No significant response; for % Response of 2-IMT: relative to 2-IMT response
T2 sequence (P48039 whole entry): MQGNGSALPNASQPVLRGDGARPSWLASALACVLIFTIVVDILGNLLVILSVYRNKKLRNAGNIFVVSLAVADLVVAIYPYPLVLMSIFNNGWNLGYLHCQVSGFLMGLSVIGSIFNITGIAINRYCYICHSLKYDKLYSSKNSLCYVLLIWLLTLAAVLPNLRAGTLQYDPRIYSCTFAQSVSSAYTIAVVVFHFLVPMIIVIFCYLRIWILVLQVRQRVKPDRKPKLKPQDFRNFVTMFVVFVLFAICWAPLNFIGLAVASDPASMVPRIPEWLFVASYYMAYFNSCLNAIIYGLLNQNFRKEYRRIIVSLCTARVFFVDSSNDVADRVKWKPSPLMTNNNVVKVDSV
Experimental: 1. FLIPR Ca^2+ Mobilization Assay
This assay indicates the ability of the novel compounds to activate MT1 and MT2 receptors by measuring downstream events of the activated receptor, in this case intracellular calcium mobilization.
1. Intracellular Ca^2+ Mobilization Assay Using Fluorometric Imaging Plate Reader (FLIPR®)
An intracellular calcium mobilization assay was performed to screen the isoquinolone compounds against the two melatonin receptor subtypes, MT1 and MT2 on the fluorometric imaging plate reader (FLIPR®). In order to facilitate the screening process in a high-throughput manner, chimeric G proteins with the ability to couple to a range of GPCR as well as activate intracellular Ca^2+ were employed. The melatonin receptor subtype (either MT1 or MT2) was co-expressed with the G-protein chimeras in COS-7 (monkey kidney fibroblast) cells. During the assay, cells were exposed to the novel isoquinolone compounds and the corresponding change in fluorescence was measured. Both single point and dose-dependant assays were performed for each isoquinolone compound and based on the latter a dose response curve was generated and the corresponding EC50 for each receptor subtype determined.
Specifically, COS-7 cells were seeded at a density of 20,000 cells/well into 96-well plates designed for FLIPR assays, using Opti-MEM with 10% FCS at a volume of 100 μl/well. Transfection was carried out using Lipofectamine 2000® reagent. In each well, 0.2 μg of the GPCR and G protein cDNA were diluted with 25 μl of Opti-MEM and 0.2 μl of Lipofectamine 2000® was diluted with another 25 μl of Opti-MEM. They were added to appropriate wells after the two components were mixed for 20 min.
After 48 hours of incubation post-transfection, 50 μl of the transfection medium was removed from each well followed by the labelling of transfected cells with 100 μl of 2 μM Fluo-4 in calcium containing HBSS (Hank's balanced salt solution) with 20 mM HEPES (N-[2-hydroxyethyl]piperazine—N′-[2-ethanesulfonic acid]; pH 7.5) and 2.5 mM probenecid (anion exchanger inhibitor, freshly prepared) for 1 hour at 37° C. 70 μl of 3× drugs (isoquinolinone compounds encompassing the invention) were prepared and aliquoted into the corresponding wells in the V-well drug plate. Changes in fluorescence were detected in the FLIPR 96 with an excitation wavelength of 488 nm. The background fluorescence was adjusted to the range of 8,000 to 12,000 units by altering the laser power and exposure time (typically 0.4 W and 0.4 sec, respectively) for the FLIPR setup. 50 μl of each agonist solution was added to the corresponding wells and the fluorescent emission (between 510 and 560 nm) was monitored for 3 min. Results were expressed as change in fluorescent intensity units (FIU). Concentration-response curves were generated by determining the maximal change in FIU of each data set. Numerical analysis of the statistics and EC50 (median effective concentration) values were performed on GraphPad Prism version 3.03.
Then the intracellular Ca^2+ mobilization assays using the Fluorometric Imaging Plate Reader (FLIPR®) were performed as described above.

MT1 receptor [2] = biological target: T2, MT1 receptor; assay: cAMP assay, MT1; design: expressed in transfected cells; host or cells: COS-7 (monkey kidney fibroblast); conditions: inhibition of forskolin-stimulated cAMP production; MT1-expressing cells
[3] = Table 1, MT1 in COS-7 cells with chimeric G protein, log value, negative, NSR = no significant response
[4] = Table 2, MT1, log value, negative
[5] = Table 1, MT1 in COS-7 cells with chimeric G protein, log value, negative, NSR = no significant response, read-out: Log(EC50) ± SEM (converted)

| SMILES | CRE-Luc Assay MT2 % Inh ± SEM of 1 μM Fsk (MT2 receptor) [%] | Log(EC50) ± SEM (MT1 receptor [1]; [3]) | logEC50 ± SEM (MT1 receptor [1]; [4]) | cAMP Assay MT1 % Inh (MT1 receptor [2]) [%] | % Response of 2-IMT (MT1 receptor [1]; Table 1, MT1) [%] | EC50 (MT1 receptor [1]; [5]) [nM] | EC50 (MT1 receptor [1]; Table 2, MT1, read-out: EC50) [nM] |
| --- | --- | --- | --- | --- | --- | --- | --- |
| Cn1ccc2cc(OC(=O)c3ccccc3)c(OC(=O)c3ccccc3)cc2c1=O [IS039] | 69.8 ± 7.2 | NSR | NSR | 8.8 ± 5.8 |  |  |  |
| COc1cc(COc2cc3ccn(C)c(=O)c3cc2OC)cc(OC)c1 [IS042] | 71.3 ± 8.8 |  |  | 81.8 ± 6.2 | 49.4 | 12 | 12 |
| COc1cccc(COc2cc3ccn(C)c(=O)c3cc2OC)c1 [IS044] | 73.9 ± 12.4 | −6.79 ± 0.17 | −6.79 ± 0.17 | 72.9 ± 7.5 | 54.5 |  | 161 |
| COc1cccc(COc2cc3c(=O)n(C)ccc3cc2OC)c1 [IS521] | 70.2 ± 9.2 |  |  | 19.4 ± 17.4 | 31.8 | 1860 | 1860 |
| COc1cc(COc2cc3c(=O)n(C)ccc3cc2OC)cc(OC)c1 [IS523] | 71.6 ± 16.3 | NSR | NSR | 18.6 ± 14.7 |  |  |  |
| COc1cc2ccn(C)c(=O)c2cc1OCc1ccc(C(C)(C)C)cc1 [IS526] | 17.8 ± 4.7 | −5.35 ± 1.32 | −5.35 ± 1.32 | 26.9 ± 24.1 | 46.2 |  | 4490 |
| COc1cccc(COc2c(OC)ccc3c(=O)n(C)ccc23)c1 [IS527] | 61.0 ± 9.3 | NSR | NSR | 28.3 ± 16.0 |  |  |  |
| COc1cc(COc2c(OC)ccc3c(=O)n(C)ccc23)cc(OC)c1 [IS528] | 60.8 ± 8.5 | −5.15 ± 0.51 | −5.15 ± 0.51 | 39.2 ± 12.0 | 42.1 |  | 7140 |
| COc1ccc2c(=O)n(C)ccc2c1OCc1ccc(C)cc1 [IS529] | 61.3 ± 13.1 | NSR | NSR | 34.0 ± 17.4 |  |  |  |
